Laboratory results reported in US20180161386A1, “PHARMACEUTICAL COMPOSITION FOR TREATMENT OF DEPRESSION AND PREPARATION METHOD THEREOF” (THISHERB HEALTH PTY LTD, priority 2015, published 2018).
Where a name gives a salt, the structure may show the parent alone.

Assays:
mice [1] = experiment: mouse-tail suspension test; assay type: in vivo
Text: (§1) 1.1 Drug testing and reagents: The capsules pharmaceutical compositions for the treatment of depression in form of obtained in Example 2 compared with fluoxetine hydrochloride. 1.2 Animals: 20 male and 20 female mice provided by the Experimental Animal Center; average body mass of 18-22 g. 1.3 Instruments: Mouse-tail suspension device (a wooden board of about 1 meter in length, fixed onto a desktop with a horizontal distance of about 15 cm), swimming model device (a glass tank with a height of 30 cm, a diameter of 14 cm, a water depth of 10 cm, and temperature of 25° C.), and homemade open box. 1.4 Grouping: The mice were fed for one week, during which time the mice feed and drink freely. The mice were randomly divided into four groups of control group, depression capsule low-dose group (hereinafter referred to as the low-dose group), depression capsule high-dose group (hereinafter referred to as the high-dose group), the positive groups, 10 mice per group. […]
The mouse was suspended by its tail so that the tail was adhered (1 cm from the tail end of the mouse) to the horizontal plank of wooden board by tape with its head about 5 cm above the desktop. […] The test was performed in 1 h after last drug administration and the time of the mouse being immobile within last 4 min for 6 min period was recorded.

mice [2] = experiment: opening test (independent activity, open box); assay type: in vivo, mouse
Text: as §1
A wooden box was provided with 36 cm×36 cm×27 cm, the bottom of which is divided into 25 squares. The test was performed in 1 h after last drug administration, and the number of the mouse crossing the grids and vertical climbing within last 3 min for 5 min period was recorded.

mice [3] = experiment: mouse forced swimming test; assay type: in vivo
Text: 1.1 Drug testing and reagents: The capsules pharmaceutical compositions for the treatment of depression in form of obtained in Example 2 compared with fluoxetine hydrochloride. 1.2 Animals: 20 male and 20 female mice provided by the Experimental Animal Center; average body mass of 18-22 g. 1.3 Instruments: Mouse-tail suspension device (a wooden board of about 1 meter in length, fixed onto a desktop with a horizontal distance of about 15 cm), swimming model device (a glass tank with a height of 30 cm, a diameter of 14 cm, a water depth of 10 cm, and temperature of 25° C.), and homemade open box. 1.4 Grouping: The mice were fed for one week, during which time the mice feed and drink freely. The mice were randomly divided into four groups of control group, depression capsule low-dose group (hereinafter referred to as the low-dose group), depression capsule high-dose group (hereinafter referred to as the high-dose group), the positive groups, 10 mice per group. 1.5 Drug administration: The control group was given saline daily at 0.2 ml/10 g; the positive control group was given fluoxetine hydrochloride 2.4 mg/kg; the low-dose group was given depression capsules 1.05 g/kg; and the high-dose group was given depression capsules 4.20 g/kg. The route of administration was directly into the stomach.
1.6.2 Mouse forced swimming test: Refer to method by Prosolt et al. […]

[4] = positive group 2.4 mg/kg, P<0.01

CNCCC(Oc1ccc(C(F)(F)F)cc1)c1ccccc1 (stereo not drawn) [fluoxetine hydrochloride]
Immobile time in the mouse-tail suspension test (mice [1]; mice, positive control group 0.0024 g/kg (2.4 mg/kg), directly into the stomach, 1 h after last administration, last 4 min of 6 min, x ± s, n = 10): 73 s
effect on immobile time in mouse-tail suspension test compared with the control group (mice [1]; [4]): highly significant difference
the number of squares crossed by mouse (mice [2]; mice, positive control group 0.0024 g/kg (2.4 mg/kg), directly into the stomach, 1 h after last administration, last 3 min of 5 min, ±s, n = 10): 43.9 ± 13.3
effect on independent activity in the opening test compared with the control group (mice [2]; positive group 2.4 mg/kg, P>0.05): no significant difference
Immobile time in mouse forced swimming test (mice [3]; mice, positive control group 0.0024 g/kg (2.4 mg/kg), directly into the stomach, 1 h after last administration, last 4 min of 6 min, water 25° C., x ± s, n = 10): 83.5 s
effect on immobile time in mouse forced swimming test compared with the control group (mice [3]; [4]): highly significant difference
